For nine compounds, TGI and GI50 results are on record in PubChem BioAssay (NCI).

Test systems include KM12 colon; SK-MEL-2 melanoma; SK-OV-3 ovarian; HT29 colon; IGROV1 ovarian; TK-10 renal; HOP-92 NSCLC; M14 melanoma; EKVX NSCLC; SF-295 CNS.
What all share (assay): NCI tumour cell line growth inhibition, 48 h

SMILES strings stand for the structures.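 How tested: cells in 96-well plates exposed to compound for 48 hours at five concentrations. Here, GI50 denotes the concentration required for 50% inhibition of growth. The concentration for full growth arrest is given as TGI.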

Regarding `c1ccc(NN(Cc2cnccn2)c2ccccc2)cc1`, the TGI with KM12 colon, in the test on SK-MEL-2 melanoma, with SK-OV-3 ovarian, in the test on HT29 colon, in the test with IGROV1 ovarian and in the test on TK-10 renal was more than 100 µM each time. Further, the TGI in the test with HOP-92 NSCLC was 89.7 µM; with M14 melanoma it was more than 100 µM; with EKVX NSCLC it was more than 100 µM; with SF-295 CNS, more than 100 µM.
As for `O=c1cc(-c2cccs2)[nH]c2cc3c(cc12)OCO3`, the TGI in the test on KM12 colon was more than 100 µM; in the test with SK-MEL-2 melanoma, more than 48 µM; in the test with SK-OV-3 ovarian it was 8.14 µM; in the test with HT29 colon, more than 74.7 µM; in the test on IGROV1 ovarian, more than 53.4 µM; with TK-10 renal it was more than 100 µM. Besides, the TGI in the test on HOP-92 NSCLC was more than 100 µM; in the test with M14 melanoma, more than 100 µM; with EKVX NSCLC, more than 100 µM; in the test on SF-295 CNS, more than 49 µM.
For `CC1=C(C(=O)Nc2ccccc2C)C(c2ccc(Cl)cc2)C(C(=O)Nc2ccccc2C)=C(C)N1`, the TGI in the test on KM12 colon, in the test with SK-MEL-2 melanoma, in the test on SK-OV-3 ovarian, in the test on HT29 colon, in the test on IGROV1 ovarian and with TK-10 renal was more than 100 µM each time. In addition, the TGI in the test with HOP-92 NSCLC, with M14 melanoma, in the test on EKVX NSCLC and with SF-295 CNS was more than 100 µM throughout.
In the case of `CCSC1=NC2C(N(CC)C(=O)N2CC)N1/N=C/C=C/c1ccccc1[N+](=O)[O-]` (centres undefined), the GI50 in the test on KM12 colon is 0.0887 µM; in the test with SK-MEL-2 melanoma it was 0.567 µM; with SK-OV-3 ovarian, 0.329 µM; in the test on HT29 colon it was 0.16 µM; in the test with IGROV1 ovarian it was 0.246 µM; in the test on TK-10 renal it was 36.8 µM. Moreover, the GI50 was 1.17 µM in the test with HOP-92 NSCLC, 0.184 µM in the test on M14 melanoma, 0.314 µM in the test on EKVX NSCLC and 0.0612 µM with SF-295 CNS. The TGI in the test on KM12 colon was more than 37.7 µM; in the test on SK-MEL-2 melanoma, more than 100 µM; with SK-OV-3 ovarian it was more than 100 µM; with HT29 colon it was more than 100 µM; in the test on IGROV1 ovarian, more than 100 µM; with TK-10 renal, more than 100 µM. The TGI with HOP-92 NSCLC is more than 83.8 µM; in the test on M14 melanoma, more than 100 µM; in the test on EKVX NSCLC, more than 100 µM; in the test with SF-295 CNS, more than 100 µM.
On to `O=S(=O)(/N=c1\scc(-c2ccccc2)n1-c1ccccc1)c1ccc(N2N=C3c4ccccc4CC3C2c2ccc(Cl)cc2)cc1` (centres undefined), for which the GI50 with KM12 colon was 19.9 µM; in the test on SK-MEL-2 melanoma, 36 µM; with SK-OV-3 ovarian, 76.2 µM; with HT29 colon it was 44 µM; in the test on IGROV1 ovarian it was 25.7 µM; in the test with TK-10 renal, 29.6 µM. Further, the GI50 in the test with HOP-92 NSCLC was 38.6 µM; in the test with M14 melanoma, more than 100 µM; in the test on EKVX NSCLC it was 61.1 µM; with SF-295 CNS, 40.7 µM. Besides, the TGI with KM12 colon is 89 µM; in the test on SK-MEL-2 melanoma it was more than 100 µM; in the test with SK-OV-3 ovarian it was more than 100 µM; in the test with HT29 colon it was more than 100 µM; in the test on IGROV1 ovarian it was 85.1 µM; with TK-10 renal it was more than 100 µM. Moreover, the TGI in the test on HOP-92 NSCLC, in the test with M14 melanoma, in the test on EKVX NSCLC and with SF-295 CNS was more than 100 µM each time.
For the compound `O=C(NCC1CC1)c1ccc(-c2cccc(C(=O)NC3CC3)c2)cc1`, the GI50 in the test on KM12 colon, in the test with SK-MEL-2 melanoma, with SK-OV-3 ovarian, in the test with HT29 colon, in the test with IGROV1 ovarian and in the test on TK-10 renal was more than 25 µM throughout. For the same compound, the GI50 is 6.66 µM in the test on HOP-92 NSCLC, more than 25 µM in the test on M14 melanoma, more than 25 µM in the test on EKVX NSCLC and more than 25 µM with SF-295 CNS. The TGI in the test on KM12 colon, in the test with SK-MEL-2 melanoma, in the test with SK-OV-3 ovarian, in the test with HT29 colon, in the test on IGROV1 ovarian and with TK-10 renal was more than 25 µM throughout. Besides, the TGI in the test with HOP-92 NSCLC, in the test on M14 melanoma, in the test on EKVX NSCLC and in the test on SF-295 CNS was more than 25 µM each time.
As to `COc1ccc(C2=Nn3c(nnc3-c3cc(Cl)cc(Cl)c3Cl)SC2)cc1`, the GI50 with KM12 colon was 0.384 µM; in the test with SK-MEL-2 melanoma, 1.21 µM; in the test on SK-OV-3 ovarian it was 0.522 µM; in the test with HT29 colon it was 0.336 µM; in the test with IGROV1 ovarian, 0.339 µM; in the test on TK-10 renal it was 2.26 µM. The GI50 in the test with HOP-92 NSCLC was more than 33.9 µM; in the test with M14 melanoma it was 0.349 µM; in the test on EKVX NSCLC, 0.622 µM; with SF-295 CNS, 0.0576 µM. The TGI is 8.89 µM with KM12 colon; more than 55.7 µM with SK-MEL-2 melanoma; more than 100 µM in the test with SK-OV-3 ovarian; 3.59 µM in the test with IGROV1 ovarian; more than 53.9 µM with TK-10 renal; more than 100 µM in the test with HOP-92 NSCLC. Moreover, the TGI in the test with M14 melanoma is more than 34 µM; with EKVX NSCLC, more than 46.1 µM; with SF-295 CNS, 1.4 µM.
In the case of `O=C1C[C@H]2CCCN2[C@@H](c2ccccc2)C1`, the TGI with KM12 colon, in the test with SK-MEL-2 melanoma, with SK-OV-3 ovarian, with HT29 colon, with IGROV1 ovarian and in the test on TK-10 renal was more than 100 µM in each case. Besides, the TGI with HOP-92 NSCLC, in the test on M14 melanoma, in the test with EKVX NSCLC and in the test with SF-295 CNS was more than 100 µM each time.
For the compound `CCOC(=O)Oc1c(OC)cc(C(=O)c2ccc(OC)c(O)c2OC)cc1OC`, the GI50 with KM12 colon is 0.52 µM; in the test on SK-MEL-2 melanoma, 1.79 µM; in the test with SK-OV-3 ovarian, 2.88 µM; in the test on HT29 colon it was 3.13 µM; with IGROV1 ovarian it was 3.86 µM; in the test with TK-10 renal it was more than 100 µM. Moreover, the GI50 in the test with HOP-92 NSCLC is 0.727 µM; in the test with M14 melanoma it was 0.319 µM; in the test with EKVX NSCLC it was 2.54 µM; in the test with SF-295 CNS, 0.524 µM. The TGI in the test with KM12 colon was more than 100 µM; with SK-MEL-2 melanoma, more than 100 µM; in the test on SK-OV-3 ovarian it was more than 100 µM; with HT29 colon, 22.8 µM; in the test on IGROV1 ovarian, more than 100 µM; in the test with TK-10 renal, more than 100 µM. For the same compound, the TGI in the test on HOP-92 NSCLC was more than 100 µM; with M14 melanoma, more than 100 µM; in the test on EKVX NSCLC it was more than 100 µM; with SF-295 CNS, 49.7 µM.
